Laboratory results as given in the METLIN SMRT retention time set (Domingo-Almenara et al. 2019).

Experiment: gradient 5% acetonitrile 3 min, to 50% in 2 min, to 85% in 15 min, held 3 min, 100 µL/min
Conditions: column: Zorbax Extend-C18 2.1 x 50 mm; eluents: water / acetonitrile, 0.1% formic acid
In short: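 Values are retention times taken from adduct peaks that software picked and an analyst inspected. The pure standards were run as mixtures of ~100 molecules on HPLC linked to a quadrupole time-of-flight mass spectrometer, in positive and negative ionization mode. A Zorbax Extend-C18 column (2.1 × 50 mm, 1.8 μm) was used at 100 μL/min with water and acetonitrile, each including 0.1% formic acid.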

Work on `CCOC(=O)c1c(S(=O)(=O)N2CCC(C(=O)Nc3nccs3)CC2)c(C)n(C)c1C` yielded an RP-LC retention time of 740 s.
`O=S(=O)(c1cccc2cccnc12)N1CCCn2nc(-c3cccnc3)cc2C1` gave an RP-LC retention time of 624 s.
In the case of `C=Cc1ccc(Cn2cc(S(=O)(=O)N3CCCC3)ccc2=O)cc1`, the RP-LC retention time is reported as 886 s.
`CC(C)NC(=O)c1n[nH]c2c1CCCC2` showed an RP-LC retention time of 662 s.
Work on `CC1CCCN(S(=O)(=O)c2ccc(-n3cnc(C(=O)N4CCCCCC4)c3)nc2)C1` (configuration not stated) yielded an RP-LC retention time of 920 s.
Work on `CCN1C(=O)C2(CCN(S(=O)(=O)c3ccc(C)c(Cl)c3)CC2)c2ccccc21` yielded an RP-LC retention time of 1170 s.
For `CCOc1ccccc1-c1nc(-c2ccc3ncn(CC)c3c2)no1`, the RP-LC retention time was 788 s.
In the case of `O=C(C1CCCCC1)N1CCCN(c2ncccc2-c2nc(C3CC3)no2)CC1`, the RP-LC retention time is reported as 1010 s.
Work on `CC(C)Cn1nc(CNC(=O)c2ccccn2)c2ccccc21` yielded an RP-LC retention time of 923 s.
Work on `COc1ccccc1N1CCN(c2ncc(S(=O)(=O)c3ccc(C)cc3)c(N)n2)CC1` yielded an RP-LC retention time of 955 s.
Compound `C=C1C(=O)O[C@@H]2[C@H]3O[C@]3(C)CCC=C(C)CC[C@@H]12` has an RP-LC retention time of 844 s.
In the case of `Cn1ncc(NC(=O)c2ccc(Br)cc2)c(N2CCOCC2)c1=O`, the RP-LC retention time is reported as 814 s.
With `COC(=O)C1=C(C)N(C2CCCC2)C(=O)C1(NC(=O)CCc1ccccc1)C(F)(F)F` (configuration not stated) the RP-LC retention time was 1080 s.
`Cc1cc(C)nc(Nc2nc(CC(=O)N3CCN(C4CCCCC4)CC3)cs2)n1` showed an RP-LC retention time of 558 s.
For `O=C(NCc1ccccn1)C1CCCN(C(=O)NCc2cccs2)C1` (configuration not stated), the RP-LC retention time was 550 s.
For `CC1=NS(=O)(=O)N(C)C=C1C(=O)OCc1nc(-c2ccc(C(F)(F)F)cc2)no1`, the RP-LC retention time was 1060 s.
In the case of `Cc1nc(-c2ccccc2)sc1C(=O)N1CCC(CC(=O)N2CCOCC2)CC1`, the RP-LC retention time is reported as 667 s.
`O=C(Cc1ccc(F)cc1)NCC#CCN1CCc2ccccc2C1` gave an RP-LC retention time of 565 s.
Work on `Cc1ccc(-c2cn3c(CC(=O)NCc4ccc5c(c4)OCO5)csc3n2)cc1C` yielded an RP-LC retention time of 794 s.
For `O=C1NCCc2ccc(NC(=O)C3CC(=O)N(c4ccc(Cl)cc4)C3)cc21` (configuration not stated), the RP-LC retention time was 661 s.
Compound `CCc1ccc(S(=O)(=O)N2CCC(c3nc(C(=O)N4CCCC4)c(C)o3)CC2)cc1` has an RP-LC retention time of 1010 s.
`CC(NC(=O)C1CCCN(C(=O)c2cc3sccc3n2C)C1)c1ccc2c(c1)OCCO2` (configuration not stated) showed an RP-LC retention time of 838 s.
For `CCOc1ccc(CC(=O)N2CCc3cc(-c4csc(C)n4)ccc32)cc1`, the RP-LC retention time was 1060 s.
In the case of `O=C(C1CCCN(c2ncnc3c2nc2n3CCCCC2)C1)N1CCN(c2ncccn2)CC1` (configuration not stated), the RP-LC retention time is reported as 690 s.
`O=C(NCCc1ccc(Cl)cc1)c1nnc(-c2ccc(S(=O)(=O)N3CCCCC3)cc2)o1` showed an RP-LC retention time of 1110 s.
`Cc1ccc(NC(=O)N2CCCC(C)(C(=O)NCc3ccc(F)cc3)C2)c(C)c1` (configuration not stated) showed an RP-LC retention time of 949 s.
For `Cc1ccc(Cn2c(N3CCCC(C(=O)Nc4ccc(C)cc4)C3)nc3ccsc3c2=O)cc1` (configuration not stated), the RP-LC retention time was 1080 s.
Compound `CCCN1C(=O)CCc2cc(NS(=O)(=O)c3cccs3)ccc21` has an RP-LC retention time of 797 s.
For `Cc1cccc(Sc2nccnc2N2CCCC(C(=O)NCc3ccccc3C)C2)c1` (configuration not stated), the RP-LC retention time was 1150 s.
For `CC(C)n1c(N2CCN(C(=O)COc3ccc(F)cc3)CC2)cc(=O)n(C(C)C)c1=O`, the RP-LC retention time was 904 s.
`COc1ccc(CCc2nc(-c3ccc4c(c3)nc(C)c(=O)n4C)no2)cc1` showed an RP-LC retention time of 946 s.
`COc1ccc(S(=O)(=O)Nc2cccn3c(C4CCC4)nnc23)cc1Cl` gave an RP-LC retention time of 822 s.
For `Cc1nc(C)c(C(=O)N(Cc2ccccn2)c2nc3c(Cl)cccc3s2)s1`, the RP-LC retention time was 957 s.
`O=C(C1CCCN(c2ncnc3c2nc2n3CCCCC2)C1)N1CC=C(c2ccccc2)CC1` (configuration not stated) gave an RP-LC retention time of 922 s.
Compound `Cc1noc([C@@H]2CN(C(=O)CC3CCCC3)C[C@H]2CO)n1` has an RP-LC retention time of 672 s.
`O=C(Nc1ccccc1F)N1[C@H]2CC[C@@H]1c1cncnc1C2` showed an RP-LC retention time of 646 s.
In the case of `COc1ccccc1CC(=O)Nc1cnc(C)nc1`, the RP-LC retention time is reported as 664 s.
Compound `COc1ccc(CNC(=O)C2CCc3nc(N4CCOCC4)ncc3C2)cc1` (configuration not stated) has an RP-LC retention time of 777 s.
In the case of `Cc1csc(-c2ccc(N3CCN(C(=O)c4ccc5c(c4)OCO5)CC3)nc2)n1`, the RP-LC retention time is reported as 791 s.
Compound `Cc1ccc(NC(=O)N2CCC(N3CCN(Cc4ccccc4)C3=O)CC2)cc1C` has an RP-LC retention time of 843 s.
In the case of `O=C(Nc1cccc(Cl)c1)C1CCc2nc(N3CCOCC3)ncc2C1` (configuration not stated), the RP-LC retention time is reported as 838 s.
Work on `COCCn1c(CCCC(=O)NCc2ccc3c(c2)OCO3)nc2cccnc21` yielded an RP-LC retention time of 632 s.
In the case of `COc1ccc(CC(=O)N2CCc3cc(-c4ccno4)ccc32)cc1Cl`, the RP-LC retention time is reported as 1000 s.
`CCn1c(=O)sc2cc(S(=O)(=O)N3CCC(C(=O)Nc4ccc(Cl)cc4C)CC3)ccc21` gave an RP-LC retention time of 980 s.
Compound `CC(C)c1ccc(Sc2ccc(N3CCC(C(=O)NCCN(C)C)CC3)nn2)cc1` has an RP-LC retention time of 658 s.
`O=C(NCC(c1ccco1)N1CCN(c2ccc(F)cc2)CC1)c1cnccn1` (configuration not stated) gave an RP-LC retention time of 585 s.
Compound `Cc1c(Cl)cccc1NC(=O)C1CCN(c2c(C(=O)N3CCC(C)CC3)cnc3snc(C)c23)CC1` has an RP-LC retention time of 1040 s.
For `CCCNC(=O)C1CCN(c2cnc(N3CCCCCC3)nc2)CC1`, the RP-LC retention time was 666 s.
With `CCc1nn2c(CNC(=O)c3cc(F)ccc3Cl)c(C)nc2s1` the RP-LC retention time was 669 s.
Compound `CC1(C(=O)NCc2ccc(F)c(Cl)c2)Oc2cccnc2NC1=O` (configuration not stated) has an RP-LC retention time of 730 s.
`Cc1ccccc1CCNC(=O)c1cc2n(n1)CC(C)(C(=O)NCc1ccccc1)N(C)C2=O` (configuration not stated) gave an RP-LC retention time of 764 s.
With `O=C1CCCc2cc(S(=O)(=O)N3CCCN(Cc4ccccc4Cl)C3)ccc2N1` the RP-LC retention time was 750 s.
Work on `CCc1ccc(NC(=O)Cn2nc3n(c2=O)CCCC3)cc1` yielded an RP-LC retention time of 669 s.
In the case of `CCN(CCN(C)C)c1ccc(C(=O)O)cc1NS(=O)(=O)c1ccc(Br)cc1`, the RP-LC retention time is reported as 648 s.
With `Cc1nc(C)c(C(=O)N2CCC(C(=O)N3CCCCCCNC(=O)CC3)CC2)s1` the RP-LC retention time was 602 s.
In the case of `Cc1nn(C(C)C(=O)NCCCN(C)Cc2ccccc2)c(=O)c2nn(-c3ccccc3)c(C)c12` (configuration not stated), the RP-LC retention time is reported as 678 s.
For `Cc1ccc(-c2cc3n(n2)CCCN(C(=O)Cc2ccsc2)C3)cc1`, the RP-LC retention time was 857 s.
`Cc1ccccc1-n1c(=O)c2sccc2n(Cc2nc(-c3ccc(Cl)cc3)no2)c1=O` gave an RP-LC retention time of 1090 s.
Work on `Cn1ncc2c(NCc3ccccc3)nc(NCc3ccccc3)nc21` yielded an RP-LC retention time of 652 s.
Compound `Cc1ccc(-c2nnc(Cc3nc(-c4ccc5c(c4)OCO5)no3)o2)cc1C` has an RP-LC retention time of 1070 s.
`CCn1cnc(S(=O)(=O)N2CCCC(C(=O)NCCCc3ccccc3)C2)c1` (configuration not stated) gave an RP-LC retention time of 769 s.
Work on `O=c1c(=O)n(Cc2nc(-c3ccc4c(c3)OCO4)no2)ccn1Cc1ccc(Cl)cc1` yielded an RP-LC retention time of 879 s.
For `Cn1cc(-c2cc3n(n2)CCC(=O)N3CCCC(=O)N2CCN(c3ccccc3)CC2)c2ccccc21`, the RP-LC retention time was 859 s.
Compound `Cc1oc(-c2ccccc2)nc1Cc1noc(COc2ccccc2)n1` has an RP-LC retention time of 1090 s.
`CC(C)(Oc1ccc(Cl)cc1)C(=O)Nc1ccc2cn[nH]c2c1` showed an RP-LC retention time of 822 s.
In the case of `COc1ccc(NC(=O)NCCn2c(-c3ccncc3)nc3cccnc32)cc1`, the RP-LC retention time is reported as 608 s.
`CCS(=O)(=O)N1CCC(C(=O)NCCc2csc(-c3ccccc3)n2)CC1` showed an RP-LC retention time of 765 s.
Work on `CN(C)CCNC(=O)C1CCN(C(=O)c2cc3ccsc3n2Cc2ccc(Cl)cc2)CC1` yielded an RP-LC retention time of 685 s.
In the case of `CCn1cc(C2=CCN(S(=O)(=O)c3ccc(C)c(Cl)c3)CC2)c2cccnc21`, the RP-LC retention time is reported as 1180 s.
For `Brc1ccc(-c2csc(Cc3nc(-c4ccc5c(c4)OCO5)no3)n2)cc1`, the RP-LC retention time was 1300 s.
Compound `O=C(NCCc1cccs1)C1CN(S(=O)(=O)C2CC2)CC12CCCCC2` (configuration not stated) has an RP-LC retention time of 934 s.
With `Cn1c(=O)sc2cc(S(=O)(=O)N3CCC(C(=O)NC4CCCCCCC4)CC3)ccc21` the RP-LC retention time was 931 s.
For `COc1ccc2c(CCNC(=O)CCc3ccccc3)c[nH]c2c1`, the RP-LC retention time was 796 s.
Compound `O=C(C1CC1)N1CCC(COCc2ccccc2)CC1` has an RP-LC retention time of 831 s.
For `Cc1cc(OCC(=O)Nc2ccccc2C(F)(F)F)nc(N2CCCC(C)C2)n1` (configuration not stated), the RP-LC retention time was 734 s.
Compound `Cc1nc(-c2ccccc2)sc1C(=O)NCCNC(=O)c1ccc(NC(=O)C2CC2)cc1` has an RP-LC retention time of 705 s.
`CCc1ccc(NC(=O)Cn2nc(N3CCOCC3)c3ccccc3c2=O)cc1` showed an RP-LC retention time of 874 s.
`O=C(CCc1c(-c2ccc(F)cc2)nc2ccccn12)Nc1cccc(F)c1` showed an RP-LC retention time of 676 s.
For `CN(C(=O)Cn1ccn2nc(-c3ccc(F)cc3)c(CO)c2c1=O)c1ccccc1`, the RP-LC retention time was 924 s.
Work on `O=C(c1cccc(Cl)c1)N1CCN(C(=O)c2nnn3c2COC(c2ccccc2)C3)CC1` (configuration not stated) yielded an RP-LC retention time of 900 s.
In the case of `CCc1ccc(NC(=O)CSc2cc(N3CCCCC3C)ncn2)cc1` (configuration not stated), the RP-LC retention time is reported as 1100 s.
Work on `O=C(Cn1cc(-c2ccccc2)c2ncnc(N3CCOCC3)c21)NCC1CCCO1` (configuration not stated) yielded an RP-LC retention time of 644 s.
Compound `CSc1cccc(NC(=O)Cn2c(=O)n(-c3cccc(C)c3)c(=O)c3c2cc(C)n3C)c1` has an RP-LC retention time of 920 s.
`CCOc1ccc2ncc(C(=O)c3ccccc3)c(N3CCN(C)CC3)c2c1` showed an RP-LC retention time of 527 s.
For `CCN1C(=O)COc2cc(-c3noc(C(=O)NC4CCCCC4)n3)ccc21`, the RP-LC retention time was 996 s.
In the case of `Cc1ccccc1CN1CCC(CNS(=O)(=O)c2ccc3c(c2)CCCC(=O)N3)CC1`, the RP-LC retention time is reported as 616 s.
For `CCc1ccc(CNC(=O)C2CCc3nc(N4CCOCC4)ncc3C2)cc1` (configuration not stated), the RP-LC retention time was 802 s.
